Laboratory results published in ChEMBL document CHEMBL1201862, “PubChem BioAssay data set” (2004).
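Grown in 96-well plates, cells were treated for 48 hours with each compound at five concentrations. Insufficient inhibition: endpoint recorded as highest concentration tested. GI50 is the concentration that inhibits growth by half.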 Activity calls are given as the source filed them. Rule as the data show it: active = GI50 up to about 1.1 µM and inactive = higher.

How the values were obtained:
Assay in all cases: inhibition of tumour cell growth, NCI panel, 48 h
CAKI-1 = test system: CAKI-1
SF-539 = test system: SF-539
HOP-92 = test system: HOP-92
SK-MEL-28 = test system: SK-MEL-28
MCF7 = test system: MCF7
U-251 = test system: U-251
SK-MEL-5 = test system: SK-MEL-5
MOLT-4 = test system: MOLT-4
SN12C = test system: SN12C
UACC-257 = test system: UACC-257
PC-3 = test system: PC-3
Malme-3M = test system: Malme-3M
OVCAR-5 = test system: OVCAR-5
HCT-15 = test system: HCT-15
IGROV-1 = test system: IGROV-1
BT-549 = test system: BT-549
NCI-H226 = test system: NCI-H226
OVCAR-4 = test system: OVCAR-4
SK-MEL-2 = test system: SK-MEL-2
COLO 205 = test system: COLO 205

| Compound | GI50 (CAKI-1) | GI50 (SF-539) | GI50 (HOP-92) | GI50 (SK-MEL-28) | GI50 (MCF7) | GI50 (U-251) | GI50 (SK-MEL-5) | GI50 (MOLT-4) | GI50 (SN12C) | GI50 (UACC-257) | GI50 (PC-3) | GI50 (Malme-3M) | GI50 (OVCAR-5) | GI50 (HCT-15) [µM] | GI50 (IGROV-1) | GI50 (BT-549) | GI50 (NCI-H226) | GI50 (OVCAR-4) | GI50 (SK-MEL-2) | GI50 (COLO 205) |
| --- | --- | --- | --- | --- | --- | --- | --- | --- | --- | --- | --- | --- | --- | --- | --- | --- | --- | --- | --- | --- |
| O=C(O)c1cc2ccccc2c(/N=N/c2ccc(S(=O)(=O)O)cc2)c1O | > 100 µM (inactive) | > 100 µM (inactive) | > 100 µM (inactive) | > 100 µM (inactive) | > 100 µM (inactive) | > 100 µM (inactive) | > 100 µM (inactive) | > 100 µM (inactive) | > 100 µM (inactive) | > 100 µM (inactive) | > 100 µM (inactive) | > 100 µM (inactive) | > 100 µM (inactive) | > 100 | > 100 µM (inactive) | > 100 µM (inactive) | > 100 µM (inactive) | > 100 µM (inactive) | > 100 µM (inactive) | > 100 µM (inactive) |
| N#CC(C#N)=Cc1ccc(C=C2SC3=C(SCCS3)S2)s1 | 3.47 µM (inactive) | 0.63 µM (active) | 17.6 µM (inactive) | > 100 µM (inactive) | 2.24 µM (inactive) | 12.4 µM (inactive) | 3.33 µM (inactive) | 2.59 µM (inactive) | 66.2 µM (inactive) | 9.38 µM (inactive) | 6.04 µM (inactive) | > 100 µM (inactive) | 3.72 µM (inactive) | 0.818 | 4.52 µM (inactive) | 1.28 µM (inactive) | 2.27 µM (inactive) | 9.68 µM (inactive) | > 100 µM (inactive) | 8.73 µM (inactive) |
| Cc1cc(N(CCOS(C)(=O)=O)CCOS(C)(=O)=O)ccc1/C=N/c1ccc(-c2csc(-c3ccc(Br)cc3)n2)cc1 | 0.285 µM (active) | 1.17 µM (inactive) | 14.4 µM (inactive) | 31.2 µM (inactive) | 1.02 µM (active) | 15.2 µM (inactive) | 14.2 µM (inactive) | 2.38 µM (inactive) | 10.7 µM (inactive) | 18.9 µM (inactive) | 19.5 µM (inactive) | 21.9 µM (inactive) | 17.3 µM (inactive) | 15.2 | 5.43 µM (inactive) | 20.5 µM (inactive) | 12.6 µM (inactive) | 26.5 µM (inactive) | 24.7 µM (inactive) | 1.22 µM (inactive) |
| COc1cc(/C=C/C(=O)Oc2ccccc2)ccc1C(=O)O/C=C/c1ccccc1 | > 100 µM (inactive) | > 100 µM (inactive) | > 100 µM (inactive) | > 100 µM (inactive) | > 100 µM (inactive) | > 100 µM (inactive) | > 100 µM (inactive) | > 93.3 µM (inactive) | > 100 µM (inactive) | > 100 µM (inactive) | > 100 µM (inactive) | > 100 µM (inactive) | > 100 µM (inactive) | > 100 | > 100 µM (inactive) | > 100 µM (inactive) | > 100 µM (inactive) | > 100 µM (inactive) | > 100 µM (inactive) | > 100 µM (inactive) |
| CN(C)c1ccc(/C=C(\NC(=O)c2ccccc2)c2nn(C)c(=O)o2)cc1 | > 100 µM (inactive) | 33.5 µM (inactive) | > 100 µM (inactive) | > 100 µM (inactive) | > 100 µM (inactive) | 24 µM (inactive) | 26.3 µM (inactive) | 35.3 µM (inactive) | > 100 µM (inactive) | 33 µM (inactive) | > 100 µM (inactive) | 78.2 µM (inactive) | > 100 µM (inactive) | > 100 | 58.6 µM (inactive) | > 100 µM (inactive) | 23.4 µM (inactive) | 28.9 µM (inactive) | 52.5 µM (inactive) | > 100 µM (inactive) |
| CCCCCCCCCCCCCCCCNC(=O)/C(=C\c1ccc(Cl)c(Cl)c1)NC(=O)c1ccccc1 | 66.7 µM (inactive) | 16.5 µM (inactive) | 14.2 µM (inactive) | 70.1 µM (inactive) | 25.9 µM (inactive) | 35.4 µM (inactive) | > 100 µM (inactive) | 15.5 µM (inactive) | 25.8 µM (inactive) | > 100 µM (inactive) | 26.5 µM (inactive) | > 100 µM (inactive) | 47.2 µM (inactive) | 30.8 | 16.8 µM (inactive) | > 100 µM (inactive) | 23.6 µM (inactive) | 24.8 µM (inactive) | > 100 µM (inactive) | 35.1 µM (inactive) |
| C/C(=N\NC(=O)Nc1ccccc1Cl)c1ccc(O)cc1 | > 100 µM (inactive) | > 100 µM (inactive) | > 100 µM (inactive) | > 100 µM (inactive) | > 100 µM (inactive) | 77.6 µM (inactive) | > 100 µM (inactive) | 7.85 µM (inactive) | > 100 µM (inactive) | > 100 µM (inactive) | > 100 µM (inactive) | > 100 µM (inactive) | > 100 µM (inactive) | 2.28 | > 100 µM (inactive) | > 100 µM (inactive) | > 100 µM (inactive) | > 100 µM (inactive) | > 100 µM (inactive) | > 100 µM (inactive) |
| C[C@]12CC[C@H]3[C@@H](CC=C4C[C@@H](O)CC[C@@]43C)[C@@H]1C/C(=C\c1ccncc1)[C@@H]2O | 18.1 µM (inactive) | 16.9 µM (inactive) | 2 µM (inactive) | 18.1 µM (inactive) | 23 µM (inactive) | 16.5 µM (inactive) | 8.51 µM (inactive) | 9.77 µM (inactive) | 17.2 µM (inactive) | 17.3 µM (inactive) | 19.1 µM (inactive) | 22.6 µM (inactive) | 32.7 µM (inactive) | 20.9 | 21.8 µM (inactive) | 3.51 µM (inactive) | 17.7 µM (inactive) | 12.2 µM (inactive) | 21.1 µM (inactive) | 10.6 µM (inactive) |
| O=C(Nc1cccc(NC(=O)C(=O)C2CCC3=C(Sc4ccccc4N3)C2=O)n1)C(=O)C1CCC2=C(Sc3ccccc3N2)C1=O (stereo not given) | 38.3 µM (inactive) | 13.1 µM (inactive) | > 100 µM (inactive) | > 100 µM (inactive) | 75.7 µM (inactive) | 45.1 µM (inactive) | 41.2 µM (inactive) | 68.9 µM (inactive) | 74.3 µM (inactive) | > 100 µM (inactive) | 27.4 µM (inactive) | > 100 µM (inactive) | > 100 µM (inactive) | 30.7 | 32.9 µM (inactive) | 79.6 µM (inactive) | 26.5 µM (inactive) | 18.9 µM (inactive) | > 100 µM (inactive) | 37.2 µM (inactive) |
| Cn1cnc2c(NCc3ccccc3)nc(NCCO)nc21 [OLOMOUCINE] | 33.7 µM (inactive) | 42.2 µM (inactive) | 61.2 µM (inactive) | 52.8 µM (inactive) | 39.7 µM (inactive) | 64.4 µM (inactive) | 40.6 µM (inactive) | 70.1 µM (inactive) | 90.2 µM (inactive) | > 95.3 µM (inactive) | 98.2 µM (inactive) | 98.2 µM (inactive) | 53 µM (inactive) | 41.3 | 42.3 µM (inactive) | 53.1 µM (inactive) | 51.3 µM (inactive) | 94.2 µM (inactive) | 98.9 µM (inactive) | 30.1 µM (inactive) |
| O=c1oc2ccccc2c(Nc2ccc3c(c2)Oc2ccccc2O3)c1[N+](=O)[O-] | 54.8 µM (inactive) | 19.2 µM (inactive) | 16.7 µM (inactive) | 21.2 µM (inactive) | 20.3 µM (inactive) | 16 µM (inactive) | 20.4 µM (inactive) | 43 µM (inactive) | 35.8 µM (inactive) | 30.3 µM (inactive) | 17.7 µM (inactive) | 23 µM (inactive) | 35.6 µM (inactive) | 44.1 | 19 µM (inactive) | 25.6 µM (inactive) | 23.1 µM (inactive) | 23.9 µM (inactive) | 16.9 µM (inactive) | > 100 µM (inactive) |
| Cc1c(C)c2c(c(N)c1C#N)C(=O)N(NC(=O)c1ccccc1)C2=O | > 100 µM (inactive) | > 100 µM (inactive) | > 100 µM (inactive) | > 100 µM (inactive) | > 100 µM (inactive) | > 100 µM (inactive) | > 100 µM (inactive) | > 100 µM (inactive) | > 100 µM (inactive) | > 100 µM (inactive) | > 100 µM (inactive) | > 100 µM (inactive) | > 100 µM (inactive) | > 100 | > 100 µM (inactive) | > 100 µM (inactive) | > 100 µM (inactive) | > 100 µM (inactive) | > 100 µM (inactive) | > 100 µM (inactive) |
| Nc1nc2[nH]cnc2c(=S)[nH]1 [THIOGUANINE] | 0.621 µM (active) | 1.05 µM (active) | 0.818 µM (active) | 9.4 µM (inactive) | 0.701 µM (active) | 5.12 µM (inactive) | 3.5 µM (inactive) | 0.269 µM (active) | 1.31 µM (inactive) | 2.1 µM (inactive) | 1.92 µM (inactive) | 1.28 µM (inactive) | 0.692 µM (active) | 1.08 | 4.85 µM (inactive) | 3.04 µM (inactive) | 4.41 µM (inactive) | 1.45 µM (inactive) | 1 µM (active) | 1.75 µM (inactive) |
| CC1(C)CN(c2ccccc2)C(=O)C1OC(=O)[C@@]1(C)C[C@@H]2C=C[C@H]1C2 (stereo not given in full) | 26.5 µM (inactive) | 23.4 µM (inactive) | 27.9 µM (inactive) | 18.1 µM (inactive) | 24.4 µM (inactive) | 19.2 µM (inactive) | 14.9 µM (inactive) | 38.2 µM (inactive) | 21.3 µM (inactive) | 24.5 µM (inactive) | 30 µM (inactive) | 10.9 µM (inactive) | 28.1 µM (inactive) | 22.1 | 16.9 µM (inactive) | 33.9 µM (inactive) | 23.3 µM (inactive) | 18.1 µM (inactive) | 17.8 µM (inactive) | 19.1 µM (inactive) |
